# Data as given in patent publication US20260256136A1, “STABILIZATION OF ALDEHYDES AND/OR AN ALCOHOLS” (priority 2022, published 2026).
# Where two headings read alike, the source gives them in different places.
# Columns and labels:
# [1] = Storage test of aldehyde mixture containing 4-hydroxy-TEMPO and 10 ppm Copper with additive (Example 3); conditions: 10 ppm Copper; for Z11-16:OH / Z10-15:Ald / 16:Acid / Z9-16:Ald / 16:Ald / Z11-16:Ald: after 55 C 14 days without cap; for Z11-16:OH: before test 2.16, blank 1.44; for Z10-15:Ald: before test 2.61, blank 2.72; for 16:Acid: before test 3.01, blank 7.94; for Z9-16:Ald: before test 5.33, blank 3.91; for 16:Ald: before test 8.16, blank 6.48; for Z11-16:Ald: before test 74.98, blank 58.18
# Experimental: To a mixture of aldehydes containing; 4-hydroxy-TEMPO (4-hydroxy-2,2,6,6-tetramethylpiperidin-1-oxyl), (Z)-10-pentenenal, (Z)-9-hexadecenal, (Z)-11-hexadecenal, hexadecanal, (Z)-11-hexadecen-1-ol (Z)-11-hexadecenoic acid and 10 ppm Copper in the composition listed in table 3 below was added up to 1% of an additive in table below. The mixture was thoroughly mixed and heated without cap in an oven at 55 C for 14 days.
# [2] = Accelerated storage test of aldehyde mixture with additive, 40 ppm Cu (Example 1); format: physicochemical
# Experimental: To a mixture of aldehydes containing; (Z)-9-hexadecenal, (Z)-11-hexadecenal, hexadecanal, (Z)-11-hexadecen-1-ol, (Z)-11-hexadecenoic acid and 40 ppm Cu was added an additive as indicated in table 1 below. The mixture was thoroughly mixed and heated without cap in an oven at 55° C. for 14 days as an accelerated storage test.
# [3] = Accelerated storage test of aldehyde mixture with additive, 10 ppm Cu (Example 2)
# Experimental: The term “accelerated storage test” as used herein refers to a well known protocol for investigating the stability of a particular composition. The protocol is described in for example the memorandum dated 16 Nov. 2012 from The United States Environmental Protection Agency Washington, D.C. 20460 with the subject title “Accelerated Storage Stability and Corrosion Characteristics Study Protocol”. The protocol evaluates product stability at 54° C.±2° C. for 14 days.
# [4] = Storage test of aldehyde mixture containing 4-hydroxy-TEMPO with additive (Example 4); format: physicochemical; conditions: for Heptane / Z11-16:OH / 16:Acid / OH tempo / Z9-16:Ald / 15-1:Ald / 16:Ald / Z11-16:Ald: after 55° C. 14 days without cap; for Heptane: before test 0.04, without additive 0.04; for Z11-16:OH: before test 0.27, without additive 0.06; for 16:Acid: before test 1.05, without additive 6.14; for OH tempo: before test 1.19, without additive 1.11; for Z9-16:Ald: before test 5.09, without additive 3.71; for 15-1:Ald: before test 7.27, without additive 5.83; for 16:Ald: before test 8.41, without additive 6.64; for Z11-16:Ald: before test 75.31, without additive 57.21, in % (unit assumed)
# Experimental: To a mixture of aldehydes containing; 4-hydroxy-TEMPO (4-hydroxy-2,2,6,6-tetramethylpiperidin-1-oxyl), (Z)-10-pentenenal, (Z)-9-hexadecenal, (Z)-11-hexadecenal, hexadecanal, (Z)-11-hexadecen-1-ol and (Z)-11-hexadecenoic acid in the composition listed in table 4 below was added up to 1% of an additive in table below. The mixture was thoroughly mixed and heated without cap in an oven at 55° C. for 14 days.
Structure (SMILES),Z11-16:OH [1],Z10-15:Ald [1],16:Acid [1],Z9-16:Ald [1],16:Ald [1],Z11-16:Ald [1],Heptane [4],Z11-16:OH [4],16:Acid [4],OH tempo [4],Z9-16:Ald [4],15-1:Ald [4],16:Ald [4],Z11-16:Ald [4],other results
[Na+].[O-][n+]1ccccc1[S-] [Sodium pyrithione],2.14,2.87,3.39,5.18,8.07,74.71,0.04,0.24,1.58,1.05,5.08,6.71,8.29,74.65,"suppressing acid formation and degradation of the aldehydes ([1]; 55 C 14 days): particularly efficient at suppressing acid formation and degradation of the aldehydes; suppressing degradation ([2]; 55° C. 14 days): particularly efficient at suppressing degradation; Z9-16:Ald ([2]; after 55° C. 14 days without cap, before test 4.3, blank 3.066023): 3.083; C16:Acid ([2]; after 55° C. 14 days without cap, before test 6.7, blank 18.84135): 8.924; 16:Ald ([2]; after 55° C. 14 days without cap, before test 7.5, blank 6.659339): 6.675; Z11-16Ald ([2]; after 55° C. 14 days without cap, before test 69.4, blank 54.83784, in % (unit assumed)): 57.02; suppressing degradation ([3]; 55° C. 14 days): highly efficient at suppressing degradation; C16:Acid ([3]; after 55° C. 14 days without cap, before test 1.05, blank 17.72): 3.34; Z9-16:Ald ([3]; after 55° C. 14 days without cap, before test 5.09, blank 3.05): 4.20; 16:Ald ([3]; after 55° C. 14 days without cap, before test 8.41, blank 6.60): 8.73; Z11-16Ald ([3]; after 55° C. 14 days without cap, before test 75.31, blank 54.31): 76.47; suppressing acid formation and/or degradation of the aldehydes ([4]; 55° C. 14 days): particularly efficient at suppressing acid formation and/or degradation of the aldehydes"
"Nc1nnc(S)s1 [5-Amino-1,3,4-Thiadiazole-2-thiol]",2.11,2.95,3.03,4.92,7.81,72.73,0.04,0.12,1.87,1.12,4.46,6.82,7.78,69.41,suppressing acid formation and/or degradation of the aldehydes [4]: particularly efficient at suppressing acid formation and/or degradation of the aldehydes
